The target in this experiment is T1, EGFR (Homo sapiens, UniProt P00533).
T1 construct: endogenous in cells; host or cells: A431 cells (lysate, captured with SUMO1 anti-EGFR antibody)
The experiment in a line: Biochemical EGFR Assay. Further details: concentration or dose not given beside the values. As to the method: This assay measures the in vitro kinase activity of EGFR using ELISA.
1. Corning 96-well Elisa plates (Corning Catalog No. 25805-96).
2. SUMO1 monoclonal anti-EGFR antibody (Biochemistry Lab, SUGEN, Inc.).
3. PBS (Dulbecco's Phosphate-Buffered Saline, Gibco Catalog No. 450-1300EB).
6. A431 cell lysate (Screening Lab, SUGEN, Inc.)
9. Adenosine-5′-triphosphate (ATP, from Equine muscle, Sigma Cat. No. A-5394).
Prepare a 1.0 mM solution in dH2O. This reagent should be made up immediately prior to use and kept on ice.
Prepare a 1.0 M stock solution in dH2O.
11. ATP/MnCl2 phosphorylation mix
This reagent should be prepared immediately before use and kept on ice
12. NUNC 96-well V bottom polypropylene plates (Applied Scientific Cat. No. AS-72092).
13. Ethylenediaminetetraacetic acid (EDTA)
Prepare 200 mM working solution in dH2O. Adjust to pH 8.0 with 10 N NaOH.
14. Rabbit polyclonal anti-phosphotyrosine serum (Biochemistry Lab, SUGEN, Inc.)
15. Goat anti-rabbit IgG peroxidase conjugate (Biosource Cat. No. ALI0404)
16. ABTS (2,2′-azino-bis(3-ethylbenzthiazoline-6-sulfonic acid), Sigma Cat. No. A-1888).
Mix first two ingredients in about 900 ml dH2O, adjust pH to 4.0 with phosphoric acid. Add ABTS, cover, let sit about 0.5 hr., filter. The solution should be kept in the dark at 4° C. until ready to use.
17. Hydrogen peroxide 30% solution (Fisher Cat. No. H325)
Mix 15 ml ABTS solution and 2.0 μl H2O2. Prepare 5 minutes before use.
1. Coat Corning 96 well ELISA plates with 0.5 μg SUMO1 in 100 μl PBS per well, store overnight at 4° C.
2. Remove unbound SUMO1 from wells by inverting plate to remove liquid. Wash 1× with dH2O. Pat the plate on a paper towel to remove excess liquid.
3. Add 150 μl of Blocking Buffer to each well. Incubate for 30 min. at room temperature with shaking.
4. Wash plate 3× with deionized water, then once with TBST. Pat plate on a paper towel to remove excess liquid and bubbles.
5. Dilute lysate in PBS (7 μg lysate/100 μl PBS)
6. Add 100 μl of diluted lysate to each well. Shake at room temperature for 60 min.
7. Wash plates as described in 4, above.
8. Add 120 μl TBS to ELISA plate containing captured EGFR.
9. Dilute test compound 1:10 in TBS in 96-well polypropylene plates (ie. 10 μl compound+90 μl TBS).
10. Add 13.5 μl diluted test compound to ELISA plate.
11. Incubate for 30 minutes while shaking at room temperature.
13. After 5 minutes, stop reaction by adding 16.5 μl of 200 mM EDTA (pH 8.0) to each well, shaking continuously. After the EDTA has been added, shake for 1 min.
14. Wash 4× with deionized water, twice with TBST.
15. Add 100 μl anti-phosphotyrosine (1:3000 dilution in TBST) per well. Incubate 30-45 min. at room temperature, with shaking.
16. Wash as described in 4, above.
17. Add 100 μl Biosource Goat anti-rabbit IgG peroxidase conjugate (1:2000 dilution in TBST) to each well. Incubate 30 min. at room temperature, with shaking.
18. Wash as described in 4, above.
19. Add 100 μl of ABTS/H2O2 solution to each well.
20. Incubate 5 to 10 minutes with shaking. Remove any bubbles.
21. If necessary stop reaction with the addition of 100 μl 0.2 M HCl per well.
22. Read assay on Dynatech MR7000 ELISA reader. Test Filter: 410 nM Reference Filter: 630 nM

T1 sequence (P00533 25-1210): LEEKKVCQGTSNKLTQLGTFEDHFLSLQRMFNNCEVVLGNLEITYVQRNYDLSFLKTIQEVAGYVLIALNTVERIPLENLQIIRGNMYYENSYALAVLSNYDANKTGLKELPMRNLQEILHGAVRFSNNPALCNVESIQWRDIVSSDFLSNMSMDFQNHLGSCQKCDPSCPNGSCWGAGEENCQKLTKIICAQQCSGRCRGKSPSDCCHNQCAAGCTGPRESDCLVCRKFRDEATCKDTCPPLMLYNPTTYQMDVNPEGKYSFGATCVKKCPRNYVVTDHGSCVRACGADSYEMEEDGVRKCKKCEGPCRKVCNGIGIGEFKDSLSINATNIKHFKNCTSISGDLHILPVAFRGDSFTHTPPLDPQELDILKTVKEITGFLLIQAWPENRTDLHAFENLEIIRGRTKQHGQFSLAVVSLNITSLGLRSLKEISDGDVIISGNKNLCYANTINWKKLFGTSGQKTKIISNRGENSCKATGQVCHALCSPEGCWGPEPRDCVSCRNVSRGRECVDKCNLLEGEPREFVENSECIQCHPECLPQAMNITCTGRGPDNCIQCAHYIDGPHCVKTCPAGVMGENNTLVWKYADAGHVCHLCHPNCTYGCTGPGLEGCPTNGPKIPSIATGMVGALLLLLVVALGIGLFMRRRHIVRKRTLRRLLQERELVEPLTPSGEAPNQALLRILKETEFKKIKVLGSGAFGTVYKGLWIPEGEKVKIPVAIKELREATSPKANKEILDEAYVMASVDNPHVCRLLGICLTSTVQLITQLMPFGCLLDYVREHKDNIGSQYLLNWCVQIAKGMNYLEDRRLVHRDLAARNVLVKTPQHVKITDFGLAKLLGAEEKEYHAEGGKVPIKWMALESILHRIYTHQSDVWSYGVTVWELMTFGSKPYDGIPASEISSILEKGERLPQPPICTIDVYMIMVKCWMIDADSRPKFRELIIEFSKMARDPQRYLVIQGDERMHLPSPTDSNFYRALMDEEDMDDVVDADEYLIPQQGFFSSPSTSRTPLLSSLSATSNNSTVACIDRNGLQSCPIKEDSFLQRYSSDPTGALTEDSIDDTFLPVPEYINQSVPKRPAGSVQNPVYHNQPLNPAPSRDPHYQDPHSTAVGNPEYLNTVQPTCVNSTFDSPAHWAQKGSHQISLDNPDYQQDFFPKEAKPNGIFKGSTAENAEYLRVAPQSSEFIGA

As for `Cc1ccc2occ(C=C3C(=O)Nc4c(Br)cc(Br)c(C)c43)c(=O)c2c1` [10731/H06], the “Biochem EGFR % Inhibition (P.167)” value is recorded as −7.8%. To `Cc1c(Br)cc(Br)c2c1C(=Cc1coc3ccc([N+](=O)[O-])cc3c1=O)C(=O)N2` [10731/H07] belongs −1.7%; to `Cc1c(Br)cc(Br)c2c1C(=Cc1c[nH]c(=O)[nH]c1=O)C(=O)N2` [10731/H08], −0.5%. With `COc1ccc2[nH]cc(C=C3C(=O)Nc4c(Br)cc(Br)c(C)c43)c2c1` [10731/H09] the figure was −2.7%. With `Cc1c(Br)cc(Br)c2c1C(=C1C(=O)N(C)c3ccccc31)C(=O)N2` [10731/H10] the figure was 3.5%; with `Cc1c(Br)cc(Br)c2c1C(=CC(c1cccs1)C(F)(F)F)C(=O)N2` (stereo not shown) [10732/H02], 13.0%. With `COc1c(C(C)C)cc(C=C2C(=O)Nc3c(Br)cc(Br)c(C)c32)cc1C(C)C` [10732/H03], the “Biochem EGFR % Inhibition (P.167)” value stood at 1.4%.

With `Cc1c(Br)cc(Br)c2c1C(=Cc1cc(C(C)C)c(Oc3ccccc3)c(C(C)C)c1)C(=O)N2` [10732/H04], the “Biochem EGFR % Inhibition (P.167)” value is −0.7%. With `COc1ccc(C=C2C(=O)Nc3c(Br)cc(Br)c(C)c32)cc1C(C)(C)C` [10732/H05] the figure was −2.9%; with `Cc1c(Br)cc(Br)c2c1C(=Cc1ccc(OCc3ccccc3)c(C(C)(C)C)c1)C(=O)N2` [10732/H06], −6.9%; with `COc1c(Br)cc(C=C2C(=O)Nc3c(Br)cc(Br)c(C)c32)cc1C(C)(C)C` [10732/H07], −15.3%. To `Cc1c(Br)cc(Br)c2c1C(=Cc1cc(Br)c(OCc3ccccc3)c(C(C)(C)C)c1)C(=O)N2` [10732/H08] belongs −14.0%; to `COc1c(Cl)cc(C=C2C(=O)Nc3c(Br)cc(Br)c(C)c32)cc1C(C)(C)C` [10732/H09], −7.4%; to `Cc1c(Br)cc(Br)c2c1C(=Cc1cc(Cl)c(OCc3ccccc3)c(C(C)(C)C)c1)C(=O)N2` [10732/H10], −21.3%. With `COc1c(I)cc(C=C2C(=O)Nc3c(Br)cc(Br)c(C)c32)cc1C(C)(C)C` [10732/H11] the figure was −15.1%; with `Cc1c(Br)cc(Br)c2c1C(=Cc1cc(I)c(OCc3ccccc3)c(C(C)(C)C)c1)C(=O)N2` [10733/H02], 3.2%. `COc1c([N+](=O)[O-])cc(C=C2C(=O)Nc3c(Br)cc(Br)c(C)c32)cc1C(C)(C)C` [10733/H03]: the “Biochem EGFR % Inhibition (P.167)” value is listed as −16.5%.

Take `COc1c(C(C)(C)C)cc(C=C2C(=O)Nc3c(Br)cc(Br)c(C)c32)cc1C(C)(C)C` [10733/H04]: the “Biochem EGFR % Inhibition (P.167)” value is listed as −24.0%. To `Cc1c(Br)cc(Br)c2c1C(=Cc1cc(C(C)(C)C)c(OCc3ccccc3)c(C(C)(C)C)c1)C(=O)N2` [10733/H05] belongs 15.9%; to `COc1c(C)cc(C=C2C(=O)Nc3c(Br)cc(Br)c(C)c32)cc1C` [10733/H06], −10.5%; to `Cc1cc(C=C2C(=O)Nc3c(Br)cc(Br)c(C)c32)cc(C)c1OCc1ccccc1` [10733/H07], −6.2%. As for `COc1cc(Br)cc(C=C2C(=O)Nc3c(Br)cc(Br)c(C)c32)c1O` [10733/H08], the “Biochem EGFR % Inhibition (P.167)” value worked out at 0.3%. Regarding `Cc1c(Br)cc(Br)c2c1C(=Cc1cc(Br)ccc1O)C(=O)N2` [10733/H09], the “Biochem EGFR % Inhibition (P.167)” value is −3.1%. To `Cc1c(Br)cc(Br)c2c1C(=Cc1cc([N+](=O)[O-])ccc1O)C(=O)N2` [10733/H10] belongs −3.1%.

Take `COc1c(O)ccc(C=C2C(=O)Nc3c(Br)cc(Br)c(C)c32)c1[N+](=O)[O-]` [10733/H11]: the “Biochem EGFR % Inhibition (P.167)” value is 7.0%.

For the origin of these results see patent publication US20020026053A1, “Novel 3-(substituted) -2- indolinones compounds and use thereof as inhibitors of protein kinase activity” (priority 1997, published 2002).
